Experimental data reported in patent publication US10100008B2, “Immunostimulating agent” (AJINOMOTO CO., INC., priority 2014, dated 2018).

Legend:
[1] = system: anti OVA-specific IgG1 subclass antibody; experiment: Adjuvant activity test: anti OVA-specific IgG1 subclass antibody in serum after subcutaneous immunization with OVA; assay type: in vivo, BALB/c mice; conditions: dorsal-subcutaneous
Experimental: One week later, the secondary immunization was carried out by dorsal-subcutaneous administration of solutions similar to those of the above-mentioned (1) to (5) again. Two weeks from the secondary immunization, the whole blood and spleen were extracted under anesthesia, and the obtained serum sample was measured for anti OVA-specific IgG1 subclass antibody. A method for measurement of the anti OVA-specific IgG1 subclass antibody in Example 1, and the following Examples 2, 4, 7 to 10 and 13 to 16 is as follows.
To a 96 well plate was added 5 μg/ml OVA at 100 μl/well, and the mixture was incubated at 4° C. overnight. After incubation, the mixture was washed three times with 200 μl of PBS-T (PBS (phosphate buffered saline)+0.05% (v/v) Tween 20) per well, and blocked with 100 μl of 5% FCS (fatal calf serum)/PBS solution per well at room temperature for 1 to 2 hr. Thereafter, the mixture was washed three times with PBS-T (200 μl/well), a diluted serum sample (100 μl/well) or the same amount of 5% FCS/PBS solution as a control was added, and the mixture was incubated at 37° C. for 1 hr. Thereafter, the mixture was washed five times with PBS-T (200 μl/well), a diluted biotinylated anti-mouse IgG1 antibody (100 μl/well) was added, and the mixture was incubated at 37° C. for 45 min. Thereafter, the mixture was washed five times with PBS-T (200 μl/well), a diluted anti-biotin-HRP antibody was added (100 μl/well), and the mixture was incubated at 37° C. for another 30 min. Thereafter, the mixture was washed five times with PBS-T (200 μl/well), TMB substrate solution was added (100 μl/well), and the mixture was incubated at room temperature for 10 to 15 min. Thereafter, a reaction quenching liquid (2N sulfuric acid solution) was added (50 μl/well) to discontinue a color developing reaction, and the absorbance (OD Value=450 nm) was measured by a microplate reader.
One week later, the secondary immunization was carried out by dorsal-subcutaneous administration of solutions similar to those of the above-mentioned (1) to (6) again. Two weeks from the secondary immunization, the whole blood and spleen were extracted under anesthesia, and the obtained serum sample was measured for anti OVA-specific IgG1 subclass antibody.
8-Week-old female BALB/c mice were divided into groups (N=6), and each group was primarily immunized by dorsal-subcutaneous administration of (1) ovalbumin (OVA) ([…] administration group), (2) OVA (10 μg) and, as an adjuvant, N,N′-bis(2-heptylundecanoyl)-L-cystine dimethyl ester (SZ23) ([…]), (3) OVA (10 μg) and N,N′-bis(dodecanoyl)-L-cystine dimethyl ester (SZ24) ([…]), and (4) saline (saline single administration group), each per mouse. One week later, the secondary immunization was carried out by dorsal-subcutaneous administration of solutions similar to those of the above-mentioned (1) to (4) again. Two weeks from the secondary immunization, the whole blood was extracted under anesthesia, and the obtained serum sample was measured for anti OVA-specific IgG1 subclass antibody. SZ24 is disclosed in JP-A-4-230359, which is incorporated herein by reference in its entirety.
8-Week-old female BALB/c mice were divided into groups (N=6), and each group was primarily immunized by dorsal-subcutaneous administration of (1) ovalbumin (OVA) ([…] administration group), (2) OVA (10 μg) and, as an adjuvant, N,N′-bis(2-tetradecylhexadecanoyl)-L-cystine dimethyl ester (SZ37) (0.256 μmol) added to saline, (3) OVA (10 μg) and N,N′-bis(2-octadecyleicosanoyl)-L-cystine dimethyl ester (SZ38) (0.256 μmol) added to saline, (4) OVA (10 μg) and SZ37 (0.256 μmol) dissolved or dispersed in 5% αCD-added saline, and (5) OVA (10 μg) and SZ38 (0.256 μmol) dissolved or dispersed in 5% αCD-added saline, each per mouse. One week later, the secondary immunization was carried out by dorsal-subcutaneous administration of solutions or dispersions similar to those of the above-mentioned (1) to (5) again. […]

[2] = Dispersibility investigation test (turbidity, OD 650 nm; photograph); assay type: physicochemical; conditions: for dispersion in 5% αCD-added saline (photograph) / dispersion in saline (photograph): after stirring; for dispersion in saline (photograph): 0.256 μmol in 1 mL saline
Experimental: N,N′-bis(2-tetradecylhexadecanoyl)-L-cystine dimethyl ester (SZ37) and N,N′-bis(2-octadecyleicosanoyl)-L-cystine dimethyl ester (SZ38) (0.256 μmol) were each dispensed to a 2 mL tube containing zirconia beads, saline or 5% α-cyclodextrin (hereinafter to be also simply referred to as αCD)-added saline (1 mL) was added, and the mixture was stirred. The absorbance (OD Value=650 nm) was measured by a microplate reader, and the turbidity was calculated as an index of dispersibility. The measurement method of the turbidity is as follows.
SZ37 and SZ38 (0.256 μmol) were each dispensed to a 2 mL tube containing zirconia beads, saline or 5% αCD-added saline (1 mL) was added, and the mixture was vigorously stirred three times under conditions of 3.15 seconds one time at 6000 rpm. The mixture was dispensed by 200 μL to a 96 well plate, and the absorbance (OD Value=650 nm) was measured by a microplate reader. As a control, kaolinite (1 mg) was dissolved in distilled water (1 L), and the absorbance (OD Value=650 nm) was measured by a microplate reader. The absorbance thereof (OD Value=650 nm) was defined to be turbidity: 1, and the turbidity of each sample was calculated from the ratio with the measured value of kaolinite.
Whether the dispersion state varies depending on the dispersion solvent when SZ37 and SZ38 are dispersed was studied. In the same manner as in Example 10, SZ37 and SZ38 were added 1% β-cyclodextrin (hereinafter to be also referred to simply as βCD)-added saline or 5% αCD-added saline, and the mixture was stirred. The absorbance (OD Value=650 nm) was measured by a microplate reader, and the turbidity was calculated as an index of dispersibility. The measurement method of turbidity as in Example 11.

[3] = 2.56 μmol in saline with OVA 10 μg, primary + secondary immunization, serum two weeks after, compared to OVA single administration group
[4] = 0.256 μmol dispersed in 5% αCD-added saline with OVA 10 μg, compared to control (OVA in 5% αCD-added saline)
[5] = 0.256 μmol dispersed in 5% αCD-added saline with OVA 10 μg, compared to OVA single administration group (OVA in saline)
[6] = 0.256 μmol in saline with OVA 10 μg, compared to OVA single administration group
[7] = 0.256 μmol in 1 mL 5% αCD-added saline
[8] = 0.256 μmol in 1 mL 5% αCD-added saline, compared to dispersion in saline
[9] = 5% αCD-added saline, compared to dispersion in 1% βCD-added saline

SMILES: COC(=O)[C@H](CSSC[C@H](NC(=O)C(CCC(C)CC(C)(C)C)C(C)CC(C)(C)C)C(=O)OC)NC(=O)C(CCC(C)CC(C)(C)C)C(C)CC(C)(C)C (stereo partly drawn) [SZ23′, N,N′-bis[5,7,7-trimethyl-2-(1,3,3-trimethylbutyl)octanoyl]-L-cystine dimethyl ester]
- production of anti OVA-specific IgG1 subclass antibody [1, 3]: significantly increased

SMILES: CCCCCCCCCCCCC(=O)N[C@@H](CSSC[C@H](NC(=O)CCCCCCCCCCCC)C(=O)OC)C(=O)OC [SZ34, N,N′-bis(tridecanoyl)-L-cystine dimethyl ester]
- production of anti OVA-specific IgG1 subclass antibody [1, 4]: significantly increased
- production of anti OVA-specific IgG1 subclass antibody [1, 3]: significantly increased

SMILES: CC(C)CCCCCCCCCCCCCCC(=O)O [ISA, isostearic acid, reference compound]
- production of anti OVA-specific IgG1 subclass antibody ([1]; 5.12 μmol in saline with OVA 10 μg, compared to OVA single administration group): did not show a significant difference

SMILES: CCCCCCCCCCCCCCCCCCCCCCCCCCCCCC(=O)N[C@@H](CSSC[C@H](NC(=O)CCCCCCCCCCCCCCCCCCCCCCCCCCCCC)C(=O)OC)C(=O)OC [SZ36, N,N′-bis(triacontanoyl)-L-cystine dimethyl ester]
- production of anti OVA-specific IgG1 subclass antibody [1, 4]: significantly increased
- production of anti OVA-specific IgG1 subclass antibody [1, 3]: significantly increased

SMILES: CCCCC/C=C\C/C=C\CCCCCCCC(=O)N[C@@H](CSSC[C@H](NC(=O)CCCCCCC/C=C\C/C=C\CCCCC)C(=O)OC)C(=O)OC [SZ28, N,N′-bis(linoleoyl)-L-cystine dimethyl ester, reference compound]
- production of anti OVA-specific IgG1 subclass antibody [1, 3]: did not increase significantly

SMILES: CCCCCCCCCCCC(=O)N[C@@H](CSSC[C@H](NC(=O)CCCCCCCCCCC)C(=O)OC)C(=O)OC [SZ24, N,N′-bis(dodecanoyl)-L-cystine dimethyl ester, reference compound]
- production of anti OVA-specific IgG1 subclass antibody [1, 3]: did not show a significant difference

SMILES: CCCCCCCCCCCCCCCCCCCCCC(=O)N[C@@H](CSSC[C@H](NC(=O)CCCCCCCCCCCCCCCCCCCCC)C(=O)OC)C(=O)OC [SZ66, N,N′-bis(docosanoyl)-L-cystine dimethyl ester]
- production of anti OVA-specific IgG1 subclass antibody [1, 4]: significantly increased

SMILES: CCCCCCCCCCCCCCC(CCCCCCCCCCCCCC)C(=O)N[C@@H](CSSC[C@H](NC(=O)C(CCCCCCCCCCCCCC)CCCCCCCCCCCCCC)C(=O)OC)C(=O)OC [SZ37, N,N′-bis(2-tetradecylhexadecanoyl)-L-cystine dimethyl ester]
- production of anti OVA-specific IgG1 subclass antibody [1, 5]: significantly increased
- production of anti OVA-specific IgG1 subclass antibody [1, 6]: did not increase significantly
- dispersion in 5% αCD-added saline (photograph) [2, 7]: could be uniformly dispersed
- turbidity (index of dispersibility) [2, 8]: significantly higher
- dispersion in saline (photograph) [2]: could not be dispersed
- turbidity (index of dispersibility) [2, 9]: significantly higher

SMILES: CCCCCCCCCCCCCCCCCCC(CCCCCCCCCCCCCCCCCC)C(=O)N[C@@H](CSSC[C@H](NC(=O)C(CCCCCCCCCCCCCCCCCC)CCCCCCCCCCCCCCCCCC)C(=O)OC)C(=O)OC [SZ38, N,N′-bis(2-octadecyleicosanoyl)-L-cystine dimethyl ester]
- production of anti OVA-specific IgG1 subclass antibody [1, 5]: significantly increased
- production of anti OVA-specific IgG1 subclass antibody [1, 6]: did not increase significantly
- dispersion in 5% αCD-added saline (photograph) [2, 7]: could be uniformly dispersed
- turbidity (index of dispersibility) [2, 8]: significantly higher
- dispersion in saline (photograph) [2]: could not be dispersed
- turbidity (index of dispersibility) [2, 9]: significantly higher

SMILES: CCCCCCCCCCCCCCCC(=O)N[C@@H](CSSC[C@H](NC(=O)CCCCCCCCCCCCCCC)C(=O)OC)C(=O)OC [SZ22, N,N′-bis(hexadecanoyl)-L-cystine dimethyl ester]
- production of anti OVA-specific IgG1 subclass antibody [1, 4]: significantly increased
- production of anti OVA-specific IgG1 subclass antibody [1, 3]: significantly increased

SMILES: COC(=O)[C@@H](N)CSSC[C@H](N)C(=O)OC [(CyssOMe)2, cystine dimethyl ester, reference compound]
- production of anti OVA-specific IgG1 subclass antibody [1, 3]: did not show a significant difference
